Measurements taken from US20210253642A1, “CALPAIN MODULATORS AND THERAPEUTIC USES THEREOF BACKGROUND” (Blade Therapeutics, Inc., priority 2018, published 2021).

Columns and labels:
Type in all cases: biochemical
[1] = target: T1, Human Cathepsin B (Homo sapiens, UniProt P07858); test: Cathepsin continuous fluorescence inhibition assay; details: Column D; enzyme 25 nM, substrate 1 uM, pH 5.0, 30 minutes pre-incubation with inhibitor
T1 construct: purchased
Protocol: (§1) Cathepsin activity and inhibition thereof was assessed by means of a continuous fluorescence assay. All assays were run in 384 well format and utilized peptide substrates that liberate fluorescence upon protease catalyzed cleavage. FLIPR plate readers (Molecular Devices Inc.) were used to monitor reactions and extract initial rates which were then fit (four parameter logistic function) to obtain IC50 values. All enzymes are human. All enzymes and reagents were obtained commercially and are summarized in Tables 1 and 2 below along with assay conditions.

[2] = target: T2, Human Cathepsin S (Homo sapiens, UniProt P25774); test: Cathepsin continuous fluorescence inhibition assay; details: Column F; enzyme 6 nM, substrate 1 uM, pH 4.5, 30 minutes pre-incubation with inhibitor
T2 construct: purchased
T2 sequence (P25774 115-331): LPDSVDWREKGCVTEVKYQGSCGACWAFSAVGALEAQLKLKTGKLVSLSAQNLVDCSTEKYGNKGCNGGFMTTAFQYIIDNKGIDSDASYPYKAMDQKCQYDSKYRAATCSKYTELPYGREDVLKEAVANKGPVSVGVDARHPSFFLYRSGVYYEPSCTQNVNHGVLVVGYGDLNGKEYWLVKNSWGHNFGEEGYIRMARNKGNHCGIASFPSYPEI
Protocol: as §1

[3] = target: T3, Human Cathepsin L (Homo sapiens, UniProt P07711); test: Cathepsin continuous fluorescence inhibition assay; details: Column G; enzyme 0.025 nM, substrate 1 uM, pH 6.0, 30 minutes pre-incubation with inhibitor
T3 construct: purchased
T3 sequence (P07711 114-333): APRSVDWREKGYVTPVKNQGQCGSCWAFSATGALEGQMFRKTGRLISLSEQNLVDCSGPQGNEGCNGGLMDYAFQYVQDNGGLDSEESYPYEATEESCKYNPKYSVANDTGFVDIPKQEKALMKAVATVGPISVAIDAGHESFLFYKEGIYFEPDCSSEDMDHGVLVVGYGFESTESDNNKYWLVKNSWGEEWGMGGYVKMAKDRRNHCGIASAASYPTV
Protocol: as §1

[4] = target: T4, Human Cathepsin K (Homo sapiens, UniProt P43235); test: Cathepsin continuous fluorescence inhibition assay; details: Column E; enzyme 10 nM, substrate 1 uM, pH 5.5, 30 minutes pre-incubation with inhibitor
T4 construct: purchased
T4 sequence (P43235 115-329): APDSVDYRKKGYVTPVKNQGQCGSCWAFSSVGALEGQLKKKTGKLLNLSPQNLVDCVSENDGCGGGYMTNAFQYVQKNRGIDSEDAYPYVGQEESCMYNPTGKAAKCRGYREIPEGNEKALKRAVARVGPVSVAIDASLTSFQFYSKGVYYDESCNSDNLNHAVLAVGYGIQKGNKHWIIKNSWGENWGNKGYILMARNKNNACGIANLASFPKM
Protocol: as §1

[5] = target: T5, Human Calpain 9/NS1 (Homo sapiens, UniProt O14815); test: Calpain continuous fluorescence (FRET) inhibition assay; details: Column C; SensoLyte 520 FRET substrate, pH 7.5, 25C
T5 sequence (O14815 1-690): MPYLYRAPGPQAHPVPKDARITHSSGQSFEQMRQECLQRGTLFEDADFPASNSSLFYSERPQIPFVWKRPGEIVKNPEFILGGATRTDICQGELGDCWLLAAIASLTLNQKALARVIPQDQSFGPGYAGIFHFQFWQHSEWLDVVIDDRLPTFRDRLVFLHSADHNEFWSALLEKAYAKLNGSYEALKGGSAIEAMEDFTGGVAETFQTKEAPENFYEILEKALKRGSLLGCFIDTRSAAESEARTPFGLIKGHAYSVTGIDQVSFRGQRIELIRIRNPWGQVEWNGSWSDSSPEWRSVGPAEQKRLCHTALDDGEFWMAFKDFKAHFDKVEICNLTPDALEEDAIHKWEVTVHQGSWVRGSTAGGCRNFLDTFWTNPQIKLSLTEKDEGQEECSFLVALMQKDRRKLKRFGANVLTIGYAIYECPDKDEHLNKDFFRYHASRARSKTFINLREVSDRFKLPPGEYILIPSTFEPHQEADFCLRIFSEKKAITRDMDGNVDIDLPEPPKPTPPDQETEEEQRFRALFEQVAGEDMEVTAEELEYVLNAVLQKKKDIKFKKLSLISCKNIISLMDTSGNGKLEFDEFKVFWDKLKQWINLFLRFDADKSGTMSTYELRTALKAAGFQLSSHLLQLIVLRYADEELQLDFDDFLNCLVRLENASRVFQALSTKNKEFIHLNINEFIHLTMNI
T5 sequence (P04632 1-268 partner): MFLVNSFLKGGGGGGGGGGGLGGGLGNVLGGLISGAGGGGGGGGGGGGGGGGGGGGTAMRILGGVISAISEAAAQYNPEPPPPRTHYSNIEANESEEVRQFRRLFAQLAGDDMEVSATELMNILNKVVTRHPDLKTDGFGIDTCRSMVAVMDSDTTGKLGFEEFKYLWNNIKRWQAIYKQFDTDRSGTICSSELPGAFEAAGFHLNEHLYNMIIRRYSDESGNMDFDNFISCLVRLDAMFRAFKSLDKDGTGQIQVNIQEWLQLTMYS
Protocol: (§2) Calpain 1, 2, and 9 activity and inhibition thereof was assessed by means of a continuous fluorescence assay. The SensoLyte 520 Calpain substrate (Anaspec Inc.) was optimized for detecting calpain activity. This substrate contains an internally quenched 5-FAM/QXLTM 520 FRET pair. Calpains 1, 2, and 9 cleave the FRET substrate into two separate fragments resulting in an increase of 5-FAM fluorescence that is proportional to calpain activity
(§3) Assays were typically setup in black 384-well plates using automated liquid handling as follows. Calpain assay base buffer typically contains 50 mM Tris, pH 7.5, 100 mM NaCl and 1 mM DTT. Inhibitors were serially diluted in DMSO and used to setup 2× mixtures with calpains in the aforementioned buffer. After incubation at ambient temperature (25C), the reaction was initiated by adding a 2× mix of the fluorescent peptide substrate and CaCl2) (required for in-situ calpain activation) in the same buffer. Reaction progress curve data were typically collected for 10 min using excitation/emission wavelengths of 490 nm/520 nm on SpectraMax i3x or the FLIPR-Tetra plate readers (Molecular Devices Inc.). Reaction rates were calculated from progress curve slopes typically over 1-5 min. Dose response curves (rate vs. log inhibitor concentration) were typically fit to a 4-parameter logistic function to extract IC50 values.

[6] = target: T6, Human Calpain 2/NS1 (Homo sapiens, UniProt P17655); test: as above; details: Column B; SensoLyte 520 FRET substrate, pH 7.5, 25C
T6 sequence (P17655 1-700): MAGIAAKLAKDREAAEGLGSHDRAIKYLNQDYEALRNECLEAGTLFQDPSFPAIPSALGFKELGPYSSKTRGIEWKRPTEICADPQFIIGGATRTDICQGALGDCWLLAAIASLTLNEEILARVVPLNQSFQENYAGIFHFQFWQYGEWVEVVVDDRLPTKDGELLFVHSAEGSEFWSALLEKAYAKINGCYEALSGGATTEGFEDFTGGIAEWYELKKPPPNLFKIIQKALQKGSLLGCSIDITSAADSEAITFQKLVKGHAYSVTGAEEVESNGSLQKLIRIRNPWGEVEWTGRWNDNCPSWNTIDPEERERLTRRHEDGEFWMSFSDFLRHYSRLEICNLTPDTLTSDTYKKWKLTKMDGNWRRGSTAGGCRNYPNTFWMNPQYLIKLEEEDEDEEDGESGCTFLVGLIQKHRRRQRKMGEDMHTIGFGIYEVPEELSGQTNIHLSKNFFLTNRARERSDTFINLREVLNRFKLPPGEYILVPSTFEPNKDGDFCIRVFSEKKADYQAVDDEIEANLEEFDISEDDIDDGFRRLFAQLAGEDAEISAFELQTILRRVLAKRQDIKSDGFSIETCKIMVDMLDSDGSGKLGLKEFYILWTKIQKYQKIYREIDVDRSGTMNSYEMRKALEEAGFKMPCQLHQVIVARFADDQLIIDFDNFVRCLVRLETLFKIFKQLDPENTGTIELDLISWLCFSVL
T6 sequence (P04632 1-268 partner): T5 sequence (P04632 1-268 partner)
Protocol: as §2, §3

[7] = target: T7, Human Calpain 1/NS1 (Homo sapiens, UniProt P07384); test: as above; details: Column A; SensoLyte 520 FRET substrate, pH 7.5, 25C
T7 sequence (P07384 1-714): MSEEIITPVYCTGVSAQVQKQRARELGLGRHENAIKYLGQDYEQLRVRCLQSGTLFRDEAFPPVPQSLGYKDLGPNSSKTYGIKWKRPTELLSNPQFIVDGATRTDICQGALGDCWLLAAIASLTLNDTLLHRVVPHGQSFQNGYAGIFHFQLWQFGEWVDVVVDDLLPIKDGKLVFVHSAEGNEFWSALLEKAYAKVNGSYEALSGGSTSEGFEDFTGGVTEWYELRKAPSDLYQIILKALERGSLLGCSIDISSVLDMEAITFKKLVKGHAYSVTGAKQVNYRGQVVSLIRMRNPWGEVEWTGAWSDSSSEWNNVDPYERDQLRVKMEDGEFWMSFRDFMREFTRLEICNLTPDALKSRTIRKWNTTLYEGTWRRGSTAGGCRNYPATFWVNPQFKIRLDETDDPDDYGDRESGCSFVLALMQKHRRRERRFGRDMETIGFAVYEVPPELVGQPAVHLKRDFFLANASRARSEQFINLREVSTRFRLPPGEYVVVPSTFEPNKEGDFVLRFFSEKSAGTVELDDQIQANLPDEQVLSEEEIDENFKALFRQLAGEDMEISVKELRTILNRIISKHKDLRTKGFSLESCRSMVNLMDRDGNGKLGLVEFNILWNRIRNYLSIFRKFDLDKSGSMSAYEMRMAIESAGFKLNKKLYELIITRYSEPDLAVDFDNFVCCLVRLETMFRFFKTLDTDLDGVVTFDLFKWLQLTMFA
T7 sequence (P04632 1-268 partner): T5 sequence (P04632 1-268 partner)
Protocol: as §2, §3

Row | SMILES | IC50 [1] | IC50 [2] | IC50 [3] | IC50 [4] | IC50 [5] | IC50 [6] | IC50 [7]
1 | CCCCCC/C=C\CC(=O)NCC(=O)N[C@H](C(=O)N[C@@H]1/C=C/C(=O)N[C@@H](C(C)C)C(=O)N[C@@H](Cc2ccc(O)cc2)C(=O)OC1)C(C)C [Compound 10, (Z)—N-(2-(((S)-1-(((3S,6S,11R,E)-3-(4-hydroxybenzyl)-6-isopropyl-2,5,8-trioxo-1-oxa-4,7-diazacyclododec-9-en-11-yl)amino)-3-methyl-1-oxobutan-2-yl)amino)-2-oxoethyl)dec-3-enamide] | < 3 µM | < 3 µM | < 3 µM | < 3 µM | > 10 µM | < 3 µM | < 3 µM
2 | CC(C)C[C@H](NC(=O)OC(C)(C)C)C(=O)N[C@@H]1/C=C/C(=O)N[C@@H](C(C)C)C(=O)N[C@@H](Cc2ccc(O)cc2)C(=O)OC1 [Compound 12, tert-butyl ((S)-1-(((3S,6S,11R,E)-3-(4-hydroxybenzyl)-6-isopropyl-2,5,8-trioxo-1-oxa-4,7-diazacyclododec-9-en-11-yl)amino)-4-methyl-1-oxopentan-2-yl)carbamate] | < 3 µM | < 3 µM | < 3 µM | < 3 µM | > 10 µM | < 3 µM | < 3 µM
3 | CCCCCC/C=C\CC(=O)N[C@@H](Cc1ccc(O)cc1)C(=O)N[C@H](C(=O)N[C@@H]1/C=C/C(=O)N[C@@H](C(C)C)C(=O)N[C@@H](Cc2ccc(OC)cc2)C(=O)OC1)C(C)C [Compound 11, (Z)—N—((S)-3-(4-hydroxyphenyl)-1-(((S)-1-(((3S,6S,11R,E)-6-isopropyl-3-(4-methoxybenzyl)-2,5,8-trioxo-1-oxa-4,7-diazacyclododec-9-en-11-yl)amino)-3-methyl-1-oxobutan-2-yl)amino)-1-oxopropan-2-yl)dec-3-enamide] | < 3 µM | < 3 µM | < 3 µM | < 3 µM | > 10 µM | < 3 µM | < 3 µM
4 | CC(C)[C@@H]1NC(=O)/C=C/[C@@H](NC(=O)[C@@H](NC(=O)[C@H](Cc2ccccc2)NC(=O)OC(C)(C)C)C(C)C)COC(=O)[C@H](Cc2ccc(O)cc2)NC1=O [Compound 6] | < 3 µM | < 3 µM | < 3 µM | < 3 µM | > 10 µM | < 3 µM | < 3 µM
5 | CC(C)[C@@H]1NC(=O)/C=C/[C@@H](NC(=O)OC(C)(C)C)COC(=O)[C@H](Cc2ccc(O)cc2)NC1=O [Compound 1, Tert-butyl ((3S,6S,11R,E)-3-(4-Hydroxybenzyl)-6-isopropyl-2,5,8-trioxo-1-oxa-4,7-Diazacyclododec-9-en-11-yl)carbamate] | < 3 µM | < 3 µM | < 3 µM | < 3 µM | > 10 µM | > 10 µM | > 10 µM
6 | CC(C)[C@@H]1NC(=O)/C=C/[C@@H](NC(=O)[C@@H](NC(=O)CNC(=O)OC(C)(C)C)C(C)C)COC(=O)[C@H](Cc2ccc(O)cc2)NC1=O [Compound 7, tert-butyl (2-(((s)-1-(((3S,6S,11R,E)-3-(4-hydroxybenzyl)-6-isopropyl-2,5,8-trioxo-1-oxa-4,7-diazacyclododec-9-en-11-yl)amino)-3-methyl-1-oxobutan-2-yl)amino)-2-oxoethyl)carbamate] | < 3 µM | < 3 µM | < 3 µM | < 3 µM | > 10 µM | 3 to 10 µM | 3 to 10 µM
7 | CC(C)[C@@H]1NC(=O)/C=C/[C@@H](NC(=O)OC(C)(C)C)COC(=O)[C@H](Cc2ccccc2)NC1=O [Compound 5, Tert-butyl ((3S,6S,11R,E)-3-benzyl-6-isopropyl-2,5,8-trioxo-1-oxa-4,7-diazacyclododec-9-en-11-yl)carbamate] | 3 to 10 µM | < 3 µM | < 3 µM | < 3 µM | > 10 µM | > 10 µM | > 10 µM
